Reference: US4902690A, “Pest controlling compositions” (The General Hospital Corporation, priority 1988, dated 1990)
Values joined by “and” are separate entries in the source; they are usually repeats but may differ in a detail not shown here. Equal values may be shown once. Read-outs that look alike come from different tables or passages of the source.

Key:
[1] = test system: octopamine-sensitive adenylate cyclase (firefly lantern octopamine receptor); test: Octopamine-sensitive adenylate cyclase activation, firefly light organ broken cell preparation; type: biochemical, firefly (Photinus pyralis); conditions: for Ka ratio / Vmax: FIG. 1, formamidines; for Vmax: % of octopamine
[2] = test system: tobacco hornworms (Manducca sexta); test: In vivo leaf test (feeding on sprayed tomato leaves); conditions: for effect of adding IBMX on antifeeding / pesticidal activity of the compound: IBMX 0.1%, FIGS. 9, 10, 17, Tables 4, 7, 8, FIG. 9 at 72 hours
[3] = test system: Manducca eggs; test: Ovacidal test (eggs dipped in drug solutions); type: in vivo, Manducca sexta
Protocol: In some cases, test agents were tested for ovacidal activity by dipping groups of 10-50 Manducca eggs in drug solutions for 60 seconds and then determining the percentage of eggs which produced viable larvae. A compound or synergist with active ovacidal activity was one which decreased the percentage of eggs hatched, relative to control.

[4] = Table 1, phenylethylamines, >1 = better than (±)-p-octopamine
[5] = Table 1, phenylethylamines, maximal activation as % of that by (±)-p-octopamine, N.A. = No Activity
[6] = agonist 1 gm/100 ml + PDE Inhibitor IBMX 0.1 g/100 ml
[7] = agonist 1 gm/100 ml, No PDE Inhibitor
[8] = agonist 10^-1 gm/100 ml + PDE Inhibitor IBMX 0.1 g/100 ml
[9] = agonist 10^-1 gm/100 ml, No PDE Inhibitor
[10] = agonist 10^-2 gm/100 ml + PDE Inhibitor IBMX 0.1 g/100 ml
[11] = agonist 10^-2 gm/100 ml, No PDE Inhibitor
[12] = agonist 1 gm/100 ml + IBMX 0.1 g/100 ml
[13] = agonist 10^-1 gm/100 ml + IBMX 0.1 g/100 ml
[14] = agonist 10^-2 gm/100 ml + IBMX 0.1 g/100 ml
[15] = agonist 10^-3 gm/100 ml + PDE Inhibitor IBMX 0.1 g/100 ml
[16] = agonist 10^-3 gm/100 ml, No PDE Inhibitor
[17] = agonist 10^-4 gm/100 ml + PDE Inhibitor IBMX 0.1 g/100 ml
[18] = agonist 10^-4 gm/100 ml, No PDE Inhibitor
[19] = Table 2, clonidines, N.A. = no activity
[20] = Table 2, inhibitory properties at the octopamine receptor
[21] = agonist 0.3 (3 × 10^-1) gm/100 ml + PDE Inhibitor IBMX 0.1 g/100 ml
[22] = agonist 0.3 (3 × 10^-1) gm/100 ml, No PDE Inhibitor

## CN(C)CC(O)c1ccc(O)cc1 (racemic) [(±)-N,Ndimethyloctopamine]
[1]; [4]
  Ka^oct /Ka^B ratio: 0.9
[1]; [5]
  Vmax (% OCT): 43 ± 4 % OCT

## CNCC(O)c1ccc(O)cc1 (racemic) [(±)-Nmethyloctopamine]
[1]; [4]
  Ka^oct /Ka^B ratio: 1.8
[1]; [5]
  Vmax (% OCT): 108 ± 10 % OCT
[2]; [6]
  % Leaf Remaining: 90%
[2]; [7]
  % Leaf Remaining: 30%
[2]; [8]
  % Leaf Remaining: 55%
[2]; [9]
  % Leaf Remaining: < 5%
[2]; [10]
  % Leaf Remaining: 42%
[2]; [11]
  % Leaf Remaining: < 5%

## NCC(O)c1cccc(O)c1 (racemic) [(±)-m-octopamine]
[1]; [4]
  Ka^oct /Ka^B ratio: 0.1
[1]; [5]
  Vmax (% OCT): 9 ± 1 % OCT
[2]
  effect of adding IBMX on antifeeding / pesticidal activity of the compound: failed to increase pesticidal activity

## COc1cc(C(O)CN)ccc1O (racemic) [(±)-normetanephrine]
[1]; [4]
  Ka^oct /Ka^B ratio: 0.07
[1]; [5]
  Vmax (% OCT): 68 ± 2 % OCT

## NCC(O)c1ccccc1O (racemic) [(±)-o-octopamine]
[1]; [4]
  Ka^oct /Ka^B ratio: 0.05
[1]; [5]
  Vmax (% OCT): 23 ± 1 % OCT

## CC(N)Cc1ccc(O)cc1 (racemic) [(±)-p-hydroxyamphetamine]
[1]; [4]
  Ka^oct /Ka^B ratio: < 0.05
[1]; [5]
  Vmax (% OCT): 8 ± 3 % OCT

## CC(N)C(O)c1ccc(O)cc1 (racemic) [(±)-α-methyloctopamine]
[1]; [4]
  Ka^oct /Ka^B ratio: 0.05
[1]; [5]
  Vmax (% OCT): 44 ± 2 % OCT

## CNC(C)C(O)c1ccc(O)cc1 (racemic) [(±)-α-methylsynephrine]
[1]; [4]
  Ka^oct /Ka^B ratio: < 0.01
[1]; [5]
  Vmax (% OCT): 7 ± 2 % OCT

## C[C@H](N)[C@H](O)c1ccccc1 (relative stereo) [(±)-norephedrine]
[1]; [4]
  Ka^oct /Ka^B ratio: < 0.09
[1]; [5]
  Vmax (% OCT): 8 ± 1 % OCT

## NCC(O)c1ccc(Cl)cc1Cl (stereo not shown) [2,4-dichlorophenylethanolamine]
[2]; [6]
  % Leaf Remaining: 80%
[2]; [7]
  % Leaf Remaining: 10%
[2]; [8]
  % Leaf Remaining: 50%
[2]; [9]
  % Leaf Remaining: < 5%
[2]; [10]
  % Leaf Remaining: 30%
[2]; [11]
  % Leaf Remaining: < 5%

## CNC[C@H](O)c1ccc(O)c(O)c1 [(-)-epinephrine]
[1]
  Ka^oct /Ka^B ratio: 0.20
[1]; light organ homogenate
  Vmax (% OCT): 75 ± 2 % OCT

## CC(C)NC[C@H](O)c1ccc(O)c(O)c1 [(-)-isoproterenol]
[1]; [5]
  Vmax (% OCT): 19 ± 1 % OCT

## NC[C@H](O)c1ccc(O)c(O)c1 [(-)-nonrepinephrine]
[1]; [4]
  Ka^oct /Ka^B ratio: 0.13
[1]; [5]
  Vmax (% OCT): 72 ± 1 % OCT

## NC[C@H](O)c1ccc(O)cc1 [(-)-p-octopamine]
[1]; [5]
  Vmax (% OCT): 101 ± 2 % OCT

## CNC[C@H](O)c1cccc(O)c1 [(-)-phenylephrine]
[1]; [4]
  Ka^oct /Ka^B ratio: < 0.2
[1]; [5]
  Vmax (% OCT): 17 ± 1 % OCT

## Cc1cc(Cl)ccc1N=CN(C)C [CDM, chlordimeform]
[1]
  Ka ratio: 0.5
  Vmax: about 10%
[3]; [12]
  % Living Larvae: 2%
[3]; [7]
  % Living Larvae: 2%
[3]; [13]
  % Living Larvae: 10%
[3]; [9]
  % Living Larvae: 25%
[3]; [14]
  % Living Larvae: 10%
[3]; [11]
  % Living Larvae: 60%
[2]; [6]
  % Leaf Remaining: 90%
[2]; [7]
  % Leaf Remaining: 90%
[2]; [8]
  % Leaf Remaining: 90%
[2]; [9]
  % Leaf Remaining: 70%
[2]; [10]
  % Leaf Remaining: 85%
[2]; [11]
  % Leaf Remaining: < 5%
[2]; [15]
  % Leaf Remaining: 65%
[2]; [16]
  % Leaf Remaining: < 5%
[2]; [17]
  % Leaf Remaining: 50%
[2]; [18]
  % Leaf Remaining: < 5%

## CNC=Nc1ccc(Cl)cc1C [DCDM, mono-demethylchlordimeform]
[1]
  more potent than DDCDM against the octopamine receptor: 50%
  Ka ratio: 6
  Vmax: 76%
[3]; [12]
  % Living Larvae: 2%
[3]; [7]
  % Living Larvae: 2%
[3]; [13]
  % Living Larvae: 3%
[3]; [9]
  % Living Larvae: 50%
[3]; [14]
  % Living Larvae: 10%
[3]; [11]
  % Living Larvae: 50%
[2]; [10]
  % Leaf Remaining: 98%
[2]; [11]
  % Leaf Remaining: 95%
[2]; [15]
  % Leaf Remaining: 90%
[2]; [16]
  % Leaf Remaining: 45%
[2]; [17]
  % Leaf Remaining: 75%
[2]; [18]
  % Leaf Remaining: < 5%

## Clc1ccc(Cl)c(N=C2NCCN2)c1 [NC 2]
[1]; [19]
  Ka^oct /Ka^B ratio: 1.1
[1]; [20]
  Ki: 23 µM

## Clc1cc(Cl)c(N=C2NCCN2)cc1Cl [NC 3]
[1]; [19]
  Ka^oct /Ka^B ratio: 2.8

## Cc1cccc(C)c1N=C1NCCN1 [NC 4]
[1]; [19]
  Ka^oct /Ka^B ratio: 0.41

## CCc1cccc(CC)c1N=C1NCCN1 [NC 5]
[1]; [19]
  Ka^oct /Ka^B ratio: 19.0 and ~20
[2]
  effect of adding IBMX on antifeeding / pesticidal activity of the compound: substantial increases in the potency
[2]; [21]
  % Leaf Remaining: 70%
[2]; [22]
  % Leaf Remaining: 40%
[2]; [8]
  % Leaf Remaining: 45%
[2]; [9]
  % Leaf Remaining: 30%
[2]; [10]
  % Leaf Remaining: 30%
[2]; [11]
  % Leaf Remaining: 15%
[2]; [15]
  % Leaf Remaining: 17%
[2]; [16]
  % Leaf Remaining: 10%

## Brc1cccc(Br)c1N=C1NCCN1 [NC 6]
[1]; [19]
  Ka^oct /Ka^B ratio: 2.1

## Clc1ccc(N=C2NCCN2)c(Cl)c1 [NC 8]
[1]; [19]
  Ka^oct /Ka^B ratio: 3.7

## Cc1ccc(N=C2NCCN2)c(C)c1 [NC 9]
[1]; [19]
  Ka^oct /Ka^B ratio: 5.1

## c1ccc(N=C2NCCN2)cc1 [NC 10]
[1]; [20]
  Ki: 190 µM
[2]; FIGS. 10, 13, 17, Table 8
  antifeeding activity of the compound by itself: inactive in vivo
[2]
  effect of adding IBMX on antifeeding / pesticidal activity of the compound: not synergized by the PDE inhibitor
[2]; [6]
  % Leaf Remaining: 15%
[2]; [7]
  % Leaf Remaining: 5%
[2]; [8]
  % Leaf Remaining: 13%
[2]; [9]
  % Leaf Remaining: 5%
[2]; [10]
  % Leaf Remaining: 15%
[2]; [11]
  % Leaf Remaining: 5%
[2]; [15]
  % Leaf Remaining: 12%
[2]; [16]
  % Leaf Remaining: 5%

## Clc1cc(Cl)c(N=C2NCCN2)c(Cl)c1 [NC 11]
[1]; [19]
  Ka^oct /Ka^B ratio: 1.9

## Brc1ccc(N=C2NCCN2)cc1 [NC 12]
[1]; [19]
  Ka^oct /Ka^B ratio: 3.0

## Cc1cc(C)c(N=C2NCCN2)c(C)c1 [NC 13]
[1]; [19]
  Ka^oct /Ka^B ratio: 4.3

## Nc1cc(Cl)c(N=C2NCCN2)c(Cl)c1 [NC 14]
[1]; [19]
  Ka^oct /Ka^B ratio: 0.7
[1]; [20]
  Ki: 440 µM

## CN(C)c1cc(Cl)c(N=C2NCCN2)c(Cl)c1 [NC 15]
[1]; [19]
  Ka^oct /Ka^B ratio: 1.9

## CN(CCCl)c1cc(Cl)c(N=C2NCCN2)c(Cl)c1 [NC 16]
[1]
  Ki: 10 µM
[1]; [19]
  Ka^oct /Ka^B ratio: 4.8

## CNCCc1ccc(O)c(O)c1 [Nmethyldopamine]
[1]; [4]
  Ka^oct /Ka^B ratio: 0.19
[1]; [5]
  Vmax (% OCT): 11 ± 1 % OCT

## Clc1cccc(Cl)c1N=C1NCCN1 [clonidine]
[1]
  Ka^oct /Ka^B ratio: 0.95
  Ki: 20 µM
[2]
  effect of adding IBMX on antifeeding / pesticidal activity of the compound: substantial increases in the potency
[2]; [6]
  % Leaf Remaining: 63%
[2]; [7]
  % Leaf Remaining: 65%
[2]; [8]
  % Leaf Remaining: 55%
[2]; [9]
  % Leaf Remaining: 20%
[2]; [10]
  % Leaf Remaining: 55%
[2]; [11]
  % Leaf Remaining: 5%

## NCCc1ccc(O)c(O)c1 [dopamine]
[1]; [4]
  Ka^oct /Ka^B ratio: 0.26
[1]; [5]
  Vmax (% OCT): 4 ± 1 % OCT

## NCC(O)c1ccc(O)c(Cl)c1 (stereo not shown) [m-chloro-octopamine]
[1]; [4]
  Ka^oct /Ka^B ratio: 0.28
[1]; [5]
  Vmax (% OCT): 77 ± 1 % OCT

## Nc1ncnc2c1nc(Sc1ccc(Cl)cc1)n2[C@@H]1O[C@@H]2COP(=O)(O)O[C@H]2[C@H]1O [p-Cl-phenylthio cyclic AMP, 8-p-chlorophenylthio-cyclic AMP]
[2]; concentration of 1%, FIGS. 18, 19
  antifeeding activity in the absence of IBMX: some antifeeding activity

## NCC(O)c1ccc(F)cc1 (stereo not shown) [p-fluoro-phenylethanolamine]
[2]; [21]
  % Leaf Remaining: 95%
[2]; [22]
  % Leaf Remaining: 25%
[2]; [8]
  % Leaf Remaining: 98%
[2]; [10]
  % Leaf Remaining: 80%
[2]; [15]
  % Leaf Remaining: 50%
[2]; [16]
  % Leaf Remaining: < 5%

## COc1ccc(CCN)cc1 [p-methoxphenylethylamine]
[1]; [4]
  Ka^oct /Ka^B ratio: 0.10
[1]; [5]
  Vmax (% OCT): 6 ± 3 % OCT

## NCCc1ccc(O)cc1 [tyramine]
[1]; [4]
  Ka^oct /Ka^B ratio: 0.15
[1]; [5]
  Vmax (% OCT): 57 ± 1 % OCT

## NCCc1ccccc1 [β-phenylethylamine]
[1]; [4]
  Ka^oct /Ka^B ratio: 0.03
[1]; [5]
  Vmax (% OCT): 13 ± 2 % OCT
